Data on twelve compounds can be found in patent US8530667B2, “Herbicides” (Syngenta Limited, priority 2007, dated 2013).

Common to all, as to format: in vivo
Experiment [1] has as its system Avena fatua (AVEFA). The experiment can be described thus: Example B post-emergence herbicidal activity, glasshouse pot test. The settings on record: 312 h, evaluated after 13 days, read-out: Post-emergence activity AVEFA (100=total damage to plant; 0=no damage to plant); for pest or weed control at 250 g/ha: rate 250 g/ha; for pest or weed control at 1000 g/ha: rate 1000 g/ha. Here is the method: (§1) Seeds of a variety of test species were sown in standard soil in pots. After cultivation for one day (pre-emergence) or after 8 days cultivation (post-emergence) under controlled conditions in a glasshouse (at 24/16° C., day/night; 14 hours light; 65% humidity), the plants were sprayed with an aqueous spray solution derived from the formulation of the technical active ingredient in acetone/water (50:50) solution containing 0.5% Tween 20 (polyoxyethelyene sorbitan monolaurate, CAS RN 9005-64-5). The test plants were then grown in a glasshouse under controlled conditions in a glasshouse (at 24/16° C., day/night; 14 hours light; 65% humidity) and watered twice daily. After 13 days for pre and post-emergence, the test was evaluated (100=total damage to plant; 0=no damage to plant). Alopecurus myosuroides (ALOMY), Avena fatua (AVEFA), Setaria faberi (SETFA), Echinochloa crus-galli (ECHCG) and Amaranthus retoflexus (AMARE)

In experiment [2] the test system is Echinochloa crus-galli (ECHCG). Described as above. The settings on record: 312 h, evaluated after 13 days, read-out: Post-emergence activity ECHCG (100=total damage to plant; 0=no damage to plant); for pest or weed control at 250 g/ha: rate 250 g/ha; for pest or weed control at 1000 g/ha: rate 1000 g/ha. Here is the method: as §1
Experiment [3] relates to Setaria faberi (SETFA). The experiment is described as above. The settings on record: 312 h, evaluated after 13 days, read-out: Post-emergence activity SETFA (100=total damage to plant; 0=no damage to plant); for pest or weed control at 250 g/ha: rate 250 g/ha; for pest or weed control at 1000 g/ha: rate 1000 g/ha. Here is the method:
as §1

Experiment [4] concerns Amaranthus retoflexus (AMARE). The description is as above. The settings on record: Amaranthus retroflexus, 312 h, evaluated after 13 days, read-out: Post-emergence activity AMARE (100=total damage to plant; 0=no damage to plant); for pest or weed control at 250 g/ha: rate 250 g/ha; for pest or weed control at 1000 g/ha: rate 1000 g/ha. Here is the method:
as §1

The subject of experiment [5] is Alopecurus myosuroides (ALOMY). Described as above. To be noted: 312 h, evaluated after 13 days, read-out: Post-emergence activity ALOMY (100=total damage to plant; 0=no damage to plant); for pest or weed control at 250 g/ha: rate 250 g/ha; for pest or weed control at 1000 g/ha: rate 1000 g/ha. Here is the method:
as §1

Experiment [6] relates to Avena fatua (AVEFA). Put plainly: Example B pre-emergence herbicidal activity, glasshouse pot test. To be noted: 312 h, Rate 250 g/ha, evaluated after 13 days, read-out: Pre-Emergence Activity AVEFA (100=total damage to plant; 0=no damage to plant). Here is the method:
as §1

The subject of experiment [7] is Echinochloa crus-galli (ECHCG). The experiment is described as above. To be noted: 312 h, Rate 250 g/ha, evaluated after 13 days, read-out: Pre-Emergence Activity ECHCG (100=total damage to plant; 0=no damage to plant). Here is the method: as §1
Experiment [8] has as its system Setaria faberi (SETFA). The description is as above. To be noted: 312 h, Rate 250 g/ha, evaluated after 13 days, read-out: Pre-Emergence Activity SETFA (100=total damage to plant; 0=no damage to plant). Here is the method: as §1
Experiment [9] relates to Amaranthus retoflexus (AMARE). Described as above. To be noted: Amaranthus retroflexus, 312 h, Rate 250 g/ha, evaluated after 13 days, read-out: Pre-Emergence Activity AMARE (100=total damage to plant; 0=no damage to plant). Here is the method:
as §1

The subject of experiment [10] is Alopecurus myosuroides (ALOMY). The experiment is described as above. The settings on record: 312 h, Rate 250 g/ha, evaluated after 13 days, read-out: Pre-Emergence Activity ALOMY (100=total damage to plant; 0=no damage to plant). Here is the method:
as §1

Take `CCc1sc(-c2ccc(Cl)cc2)nc1C1=C(OC(=O)C(C)(C)C)[C@@H]2[C@H](C1=O)[C@H]1CC[C@@H]2O1` (racemic) [Compound P3]: the pest or weed control at 250 g/ha in experiment [1] was 100%; in experiment [2], 100%; in experiment [3], 100%; in experiment [4], 0%; in experiment [5], 100%.

In the case of `CCc1sc(-c2ccc(Cl)cc2)nc1C1=C(OC(=O)C2CC2)[C@@H]2[C@H](C1=O)[C@H]1CC[C@@H]2O1` (racemic) [Compound P4, cyclopropanecarboxylic acid-4-[2-(4-chloro-phenyl)-5-ethyl-thiazol-4-yl]-5-oxo-10-oxa-tricyclo[5.2.1.0*2,6*]dec-3-en-3-yl ester], the pest or weed control at 250 g/ha in experiment [1] was determined as 100%; in experiment [2], 100%; in [3] it was 100%; in experiment [4] it was 0%; in experiment [5] it was 100%; in experiment [6] it was 90%. Further, the pest or weed control at 250 g/ha in experiment [7] stood at 90%; in experiment [8], 90%; in [9], 0%; in experiment [10] it was 60%.

For `CC(=O)OC1=C(c2nc(-c3ccc(Br)cn3)sc2C)C(=O)[C@H]2[C@@H]1[C@@H]1CC[C@H]2O1` (racemic) [Compound P5], the pest or weed control at 250 g/ha in experiment [1] was 90%; in experiment [2] it was 100%; in experiment [3], 100%; in [4], 0%; in [5], 90%; in [6], 70%. The pest or weed control at 250 g/ha in experiment [7] is 90%; in experiment [8], 100%; in [9] it was 0%; in experiment [10], 50%.

For `Cc1sc(-c2ccc(Br)cn2)nc1C1=C(OC(=O)C2CC2)[C@@H]2[C@H](C1=O)[C@H]1CC[C@@H]2O1` (racemic) [Compound P6], the pest or weed control at 250 g/ha in experiment [1] came to 90%; in experiment [2], 100%; in experiment [3], 100%; in [4] it was 0%; in experiment [5] it was 90%; in experiment [6], 0%. The pest or weed control at 250 g/ha in experiment [7] is 20%; in experiment [8], 70%; in experiment [9], 0%; in experiment [10], 0%.

As for `Cc1cc(Br)ccc1-c1nc(C2=C(OC(=O)C(C)(C)C)[C@@H]3[C@H](C2=O)[C@H]2CC[C@@H]3O2)c(C)s1` (racemic) [Compound P7], the pest or weed control at 250 g/ha in experiment [1] was found to be 100%; in experiment [2], 100%; in [3], 100%; in experiment [4], 0%; in experiment [5], 100%; in experiment [6], 100%. In addition, the pest or weed control at 250 g/ha in experiment [7] is 100%; in experiment [8], 100%; in experiment [9] it was 0%; in [10], 100%.

Take `CCc1sc(-c2ccc(Br)cc2C)nc1C1=C(OC(=O)c2ccc(Cl)cc2)[C@@H]2[C@H](C1=O)[C@H]1CC[C@@H]2O1` (racemic) [Compound P8]: the pest or weed control at 250 g/ha in [1] amounted to 100%; in experiment [2], 100%; in experiment [3] it was 100%; in experiment [4], 0%; in experiment [5] it was 100%; in experiment [6], 30%. The pest or weed control at 250 g/ha was determined as 100% in [7], 100% in [8], 0% in [9] and 90% in experiment [10].

With `Cc1sc(-c2ccc(OC(F)F)cc2Cl)nc1C1=C(OC(=O)C(C)(C)C)[C@@H]2[C@H](C1=O)[C@H]1CC[C@@H]2O1` (racemic) [Compound P9], the pest or weed control at 250 g/ha was determined as 90% in experiment [1]; 100% in experiment [2]; 100% in [3]; 0% in [4]; 100% in [5]; 50% in [6]. The pest or weed control at 250 g/ha in [7] is 90%; in [8], 90%; in [9] it was 0%; in experiment [10] it was 70%.

Regarding `CC(=O)OC1=C(c2nc(-c3ccc(OC(F)F)cc3F)sc2C)C(=O)[C@H]2[C@@H]1[C@@H]1CC[C@H]2O1` (racemic) [Compound P10], the pest or weed control at 250 g/ha in experiment [1] amounted to 100%; in experiment [2], 100%; in experiment [3] it was 100%; in experiment [4], 20%; in [5], 100%; in experiment [6], 100%. For the same compound, the pest or weed control at 250 g/ha in [7] was 100%; in [8], 100%; in [9], 0%; in experiment [10] it was 90%.

Take `CCc1sc(-c2ccc(Cl)cc2)cc1C1C(=O)[C@@H]2[C@H](C1=O)[C@H]1CC[C@@H]2O1` (some centres unmarked) [Compound T17, 4-[5-(4-chloro-phenyl)-2-ethyl-thiophen-3-yl]-10-oxa-tricyclo[5.2.1.0*2,6*]decane-3,5-dione]: the pest or weed control at 1000 g/ha was found to be 100% in experiment [1]; 100% in [2]; 100% in experiment [3]; 70% in experiment [4]; 100% in experiment [5].

With `Cc1sc(-c2cc(C(F)(F)F)n(C)n2)cc1C1C(=O)[C@@H]2[C@H](C1=O)[C@H]1CC[C@@H]2O1` (some centres unmarked) [Compound T18], the pest or weed control at 1000 g/ha is 0% in experiment [1]; 20% in [2]; 40% in experiment [3]; 0% in [4]; 20% in experiment [5].

Take `COC(=O)c1ccc(-c2cc(C3C(=O)[C@@H]4[C@H](C3=O)[C@H]3CC[C@@H]4O3)c(C)s2)cc1` (some centres unmarked) [Compound T19]: the pest or weed control at 1000 g/ha in experiment [1] stood at 0%; in experiment [2], 0%; in experiment [3], 30%; in experiment [4], 20%; in experiment [5] it was 10%.

As for `Cc1[se]c(-c2ccc(Cl)cc2)nc1C1C(=O)[C@@H]2[C@H](C1=O)[C@H]1CC[C@@H]2O1` (some centres unmarked) [Compound T34, 4-[2-(4-chloro-phenyl)-5-methyl-selenazol-4-yl]-10-oxa-tricyclo[5.2.1.0*2,6*]decane-3,5-dione], the pest or weed control at 250 g/ha in experiment [6] is 20%; in experiment [7], 70%; in experiment [8], 90%; in experiment [9], 0%; in [10], 40%.
